Source: publication PMC7730441, “Acetylcholinesterase and butyrylcholinesterase inhibitory activities of khellactone coumarin derivatives isolated from Peucedanum japonicum Thurnberg” (Scientific Reports, 2020)
In brackets after ≈: the same amount, converted by molar mass. Read-outs that look alike come from different tables or passages of the source.

Columns and labels:
[1] = tested on: BChE; conditions: cited from earlier work
[2] = tested on: AChE; conditions: cited from earlier work
[3] = biological target: T1, recombinant human MAO-B (Homo sapiens, UniProt P27338); assay: MAO-B inhibition assay (benzylamine); type: biochemical; conditions: for remaining activity at 10 µM: read-out: Residual activity at 10 µM (%) MAO-B
T1 construct: purchased Sigma-Aldrich
T1 sequence (P27338 1-520): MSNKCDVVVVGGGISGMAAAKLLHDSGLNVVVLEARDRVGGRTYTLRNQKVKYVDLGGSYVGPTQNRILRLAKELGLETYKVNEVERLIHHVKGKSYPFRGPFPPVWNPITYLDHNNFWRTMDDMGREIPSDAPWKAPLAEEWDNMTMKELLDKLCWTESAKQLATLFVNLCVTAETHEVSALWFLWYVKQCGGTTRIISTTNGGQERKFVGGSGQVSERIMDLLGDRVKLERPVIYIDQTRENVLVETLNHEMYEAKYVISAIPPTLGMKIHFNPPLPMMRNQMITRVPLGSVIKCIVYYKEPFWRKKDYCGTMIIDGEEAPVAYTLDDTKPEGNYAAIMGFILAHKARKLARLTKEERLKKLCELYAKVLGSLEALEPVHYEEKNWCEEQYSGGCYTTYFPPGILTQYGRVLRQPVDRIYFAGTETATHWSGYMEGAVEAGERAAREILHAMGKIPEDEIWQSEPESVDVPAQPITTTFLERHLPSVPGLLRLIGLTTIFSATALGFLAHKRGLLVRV
Method: (§1) AChE assays were performed as described by Ellman et al.[41] with slight modifications. […] DTNB was used for color development, caused by reaction between it and thiocholine (a product of AChE). For inhibitory assays, compounds were preincubated with AChE for 15 min prior to ATCI and DTNB addition. BChE activity was assayed using the same method, but BTCI was used instead of ATCI.
(§2) Inhibitions of the activities of AChE, BChE, MAO-A, and MAO-B by the 15 compounds were investigated at an inhibitor concentration of 10 µM. IC50 values were also determined. […] The inhibition types and Ki values were determined using Lineweaver–Burk Plots and secondary plots.

[4] = biological target: T2, recombinant human MAO-A (Homo sapiens, UniProt P21397); assay: MAO-A inhibition assay (kynuramine); type: biochemical; conditions: for remaining activity at 10 µM: read-out: Residual activity at 10 µM (%) MAO-A
T2 construct: purchased Sigma-Aldrich
T2 sequence (P21397 1-527): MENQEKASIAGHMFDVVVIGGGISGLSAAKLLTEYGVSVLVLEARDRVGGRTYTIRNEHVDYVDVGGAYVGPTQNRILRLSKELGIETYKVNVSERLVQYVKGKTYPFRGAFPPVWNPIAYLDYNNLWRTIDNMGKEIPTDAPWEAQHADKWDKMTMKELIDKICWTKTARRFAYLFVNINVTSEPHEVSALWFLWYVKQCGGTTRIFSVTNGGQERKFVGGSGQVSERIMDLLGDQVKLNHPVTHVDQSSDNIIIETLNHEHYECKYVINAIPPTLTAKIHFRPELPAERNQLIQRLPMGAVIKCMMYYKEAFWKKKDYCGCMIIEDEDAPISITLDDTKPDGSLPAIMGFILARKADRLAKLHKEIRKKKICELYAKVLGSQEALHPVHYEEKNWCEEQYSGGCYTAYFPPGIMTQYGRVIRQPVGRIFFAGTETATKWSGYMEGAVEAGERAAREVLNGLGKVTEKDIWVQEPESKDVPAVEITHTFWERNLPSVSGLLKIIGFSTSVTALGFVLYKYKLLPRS
Method: as §1, §2

[5] = biological target: T3, BChE (from equine serum) (Equus caballus, UniProt P81908); assay: biochemical; conditions: 15 min preincubation
T3 construct: BChE (from equine serum); purchased Sigma-Aldrich; host or cells: equine serum
Method: as §1, §2

[6] = biological target: T4, AChE (Type VI-S; from Electrophorus electricus) (Electrophorus electricus, UniProt O42275); assay: biochemical; conditions: for remaining activity at 10 µM: read-out: Residual activity at 10 µM (%) AChE, inhibitor 10 µM; for SI = IC50 of AChE/ IC50 of BChE: selectivity index
T4 construct: AChE (Type VI-S; from Electrophorus electricus); purchased Sigma-Aldrich Type VI-S (catalogue number not given)
Method: as §1, §2

[7] = 15 min preincubation, read-out: IC50 (µM) AChE
[8] = verbascosides from Harpagophytum procumbens
[9] = flavonoids from Agrimonia pilosa

T3 sequence (P81908 whole entry): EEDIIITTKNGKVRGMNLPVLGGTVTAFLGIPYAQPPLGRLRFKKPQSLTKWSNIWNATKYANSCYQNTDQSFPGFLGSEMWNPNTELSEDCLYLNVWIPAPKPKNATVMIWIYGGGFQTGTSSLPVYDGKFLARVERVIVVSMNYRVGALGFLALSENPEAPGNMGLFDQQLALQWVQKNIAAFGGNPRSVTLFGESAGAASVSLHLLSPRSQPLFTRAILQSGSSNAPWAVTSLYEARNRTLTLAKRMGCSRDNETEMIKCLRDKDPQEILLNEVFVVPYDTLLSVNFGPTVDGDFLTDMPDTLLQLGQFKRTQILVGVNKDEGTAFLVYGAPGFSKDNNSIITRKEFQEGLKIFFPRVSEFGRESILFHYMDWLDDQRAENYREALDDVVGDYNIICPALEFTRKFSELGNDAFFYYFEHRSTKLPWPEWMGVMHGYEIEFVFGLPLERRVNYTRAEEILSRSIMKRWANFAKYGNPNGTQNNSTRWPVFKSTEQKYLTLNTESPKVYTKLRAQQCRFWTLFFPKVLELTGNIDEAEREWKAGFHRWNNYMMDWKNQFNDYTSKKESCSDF
T4 sequence (O42275 24-633): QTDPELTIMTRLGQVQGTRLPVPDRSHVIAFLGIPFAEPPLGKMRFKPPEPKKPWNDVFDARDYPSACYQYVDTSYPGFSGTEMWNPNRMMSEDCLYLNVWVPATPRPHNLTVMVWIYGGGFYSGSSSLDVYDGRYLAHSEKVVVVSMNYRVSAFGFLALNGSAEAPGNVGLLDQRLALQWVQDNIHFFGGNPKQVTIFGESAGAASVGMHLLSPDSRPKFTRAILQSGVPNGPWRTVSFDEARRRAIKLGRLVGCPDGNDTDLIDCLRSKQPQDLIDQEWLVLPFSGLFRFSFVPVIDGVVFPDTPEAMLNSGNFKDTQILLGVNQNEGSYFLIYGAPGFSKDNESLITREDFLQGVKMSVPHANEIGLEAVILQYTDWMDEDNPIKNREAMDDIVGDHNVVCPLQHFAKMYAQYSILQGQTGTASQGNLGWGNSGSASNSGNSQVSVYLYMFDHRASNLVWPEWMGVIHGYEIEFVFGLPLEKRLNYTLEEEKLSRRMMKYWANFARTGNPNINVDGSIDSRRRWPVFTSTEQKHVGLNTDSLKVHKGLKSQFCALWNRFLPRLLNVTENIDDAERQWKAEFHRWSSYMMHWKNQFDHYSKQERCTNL

Compound | remaining activity at 10 µM ([3]; inhibitor 10 µM) [%] | remaining activity at 10 µM ([4]; inhibitor 10 µM) [%] | IC50 ([5]; read-out: IC50 (µM) BChE) [µM] | IC50 [6, 7] [µM] | remaining activity at 10 µM ([6]; 15 min preincubation) [%] | further results
C/C=C(/C)C(=O)O[C@H]1[C@H](O)c2cc3ccc(=O)oc3cc2OC1(C)C [4′-hydroxy Pd–C-III] |  |  |  |  |  | IC50 ([1]; from A. decursiva): 5.78 µM; IC50 ([2]; from Angelica decursiva): 1.09 µM
COC(C)(C)[C@H](O)CCC(C)=CCOc1c2ccoc2cc2oc(=O)ccc12 [(R)-( +)-6′-hydroxy-7′-methoxybergamottin] |  |  |  |  |  | IC50 ([2]; from Citrus hystrix): 11.2 µM
CC(=O)O[C@@H]1[C@H](OC(=O)C=C(C)C)c2c(ccc3ccc(=O)oc23)OC1(C)C [PJ1, Isosamidin] | 85 ± 0.57 | 86 ± 5.47 | > 40 | > 40 | 92.1 ± 1.7 | 
CCC(C)C(=O)O[C@@H]1c2c(ccc3ccc(=O)oc23)OC(C)(C)[C@@H]1OC(C)=O (stereo partly drawn) [PJ3, hyuganin] | 83.7 ± 2.33 | 81.2 ± 3.68 | > 40 | > 40 | 97.2 ± 8.3 | 
CC(C)=CC(=O)O[C@@H]1c2c(ccc3ccc(=O)oc23)OC(C)(C)[C@@H]1OC(=O)C=C(C)C [PJ4, 3′,4′-disenecioylkhellactone] | 95.6 ± 4.8 | 100.3 ± 0.39 | 10.7 | 21.3 ± 7.69 | 85.4 ± 7.52 | SI = IC50 of AChE/ IC50 of BChE [6]: 1.99
C/C=C(/C)C(=O)O[C@@H]1[C@H](OC(=O)C=C(C)C)c2c(ccc3ccc(=O)oc23)OC1(C)C [PJ6, calipteryxin] | 63.1 ± 2.75 | 86.1 ± 1.93 | > 40 | 25.6 ± 4.5 | 76.3 ± 6.46 | SI = IC50 of AChE/ IC50 of BChE [6]: < 0.64
C/C=C(/C)C(=O)O[C@@H]1c2c(ccc3ccc(=O)oc23)OC(C)(C)[C@@H]1OC(=O)/C(C)=C\C [PJ7, anomalin] |  |  |  |  | 75.4 ± 5.72 | remaining activity at 10 µM [3]: 73.8 ± 8.23%; remaining activity at 10 µM [4]: 74 ± 1.16%; IC50 ([5]; IC50 (µM) BChE): > 40 µM; IC50 [6]: 17.9 ± 5.59 µM; SI = IC50 of AChE/ IC50 of BChE [6]: < 0.45
CC(C)=CC(=O)O[C@@H]1[C@H](OC(=O)CC(C)C)c2c(ccc3ccc(=O)oc23)OC1(C)C [PJ8, 3′-senecioyl-4′-isovalerylkhellactone] | 68.5 ± 2.1 | 79.5 ± 2.05 | > 40 | 31.6 ± 4.4 | 97 ± 1.4 | SI = IC50 of AChE/ IC50 of BChE [6]: < 0.79
CC(C)=CC(=O)O[C@@H]1c2c(ccc3ccc(=O)oc23)OC(C)(C)[C@@H]1OC(=O)CC(C)C [PJ9, 3′-isovaleryl-4′-senecioylkhellactone] | 75 ± 8.42 | 80.6 ± 5.02 | 12.5 ± 2.82 | 36.1 ± 0.66 | 86.9 ± 9.92 | SI = IC50 of AChE/ IC50 of BChE [6]: 2.89
CCC(C)C(=O)O[C@@H]1c2c(ccc3ccc(=O)oc23)OC(C)(C)[C@@H]1OC(=O)C=C(C)C (stereo partly drawn) [PJ10, 3′-senecioyl-4′-(2-methylbutyryl)khellactone] | 70.9 ± 2.61 | 92.1 ± 5.58 | 10.2 | > 40 | 86.4 ± 5.23 | SI = IC50 of AChE/ IC50 of BChE [6]: > 3.92
C/C=C(/C)C(=O)OC1c2c(ccc3ccc(=O)oc23)OC(C)(C)C1OC(=O)CC(C)C (stereo not drawn) [PJ11, 3′-isovaleryl-4′-angeloylkhellactone] | 89.1 ± 1.36 | 75.4 ± 0.3 | > 40 | > 40 | 88.1 ± 1.35 | 
C/C=C(/C)C(=O)O[C@@H]1c2c(ccc3ccc(=O)oc23)OC(C)(C)[C@@H]1OC(=O)C(C)CC (stereo partly drawn) [PJ12] | 72.4 ± 3.7 | 78.9 ± 3.98 | > 40 | 29 ± 1.15 | 58.3 ± 5.37 | SI = IC50 of AChE/ IC50 of BChE [6]: < 0.73
CC(C)CC(=O)O[C@@H]1c2c(ccc3ccc(=O)oc23)OC(C)(C)[C@@H]1OC(=O)CC(C)C [PJ14, 3′,4′-diisovalerylkhellactone] | 66.1 ± 5.23 | 77 ± 5.4 | > 40 | 28.1 ± 0.33 | 51.5 ± 4.5 | SI = IC50 of AChE/ IC50 of BChE [6]: < 0.70
C[C@@H]1O[C@@H](O[C@@H]2[C@@H](O)[C@H](OCCc3ccc(O)c(O)c3)O[C@H](CO)[C@H]2OC(=O)/C=C/c2ccc(O)c(O)c2)[C@H](O)[C@H](O)[C@H]1O [acteoside] |  |  |  |  |  | IC50 [2, 8]: 19.9 µM
COc1ccc(CCCc2ccc(O)cc2)c(O)c1 [broussonin A] |  |  |  |  |  | IC50 ([1]; from Anemarrhena asphodeloidesa): 7.5 µM
O=c1ccc2ccc(O)c(O)c2o1 [daphnetin] |  |  |  |  |  | IC50 [1]: 8.66 µM; IC50 ([2]; from Artemisia capillaris): 11.6 µM

Compound | remaining activity at 10 µM ([3]; inhibitor 10 µM) [%] | remaining activity at 10 µM ([4]; inhibitor 10 µM) [%] | IC50 ([5]; read-out: IC50 (µM) BChE) [µM] | IC50 [6, 7] [µM] | remaining activity at 10 µM ([6]; 15 min preincubation) [%] | further results
C[C@@H]1O[C@@H](O[C@@H]2[C@@H](O)[C@H](OCCc3ccc(O)c(O)c3)O[C@H](CO)[C@H]2O)[C@H](O)[C@H](O)[C@H]1O [decaffeoylverbascoside] |  |  |  |  |  | IC50 [2, 8]: 16.1 µM
CC1(C)Oc2cc3oc(=O)ccc3cc2C[C@@H]1O [decursinol] |  |  |  |  |  | IC50 ([2]; from Angelica gigas Nakai): 28 µM
COc1ccc2c(c1OC)CN1CCc3cc4c(cc3C1=C2)OCO4 [dihydroberberine] |  |  |  |  |  | IC50 [2]: 1.18 µM
O=c1ccc2cc(O)c(O)cc2o1 [esculetin] |  |  |  |  |  | IC50 [1]: 9.29 µM; IC50 ([2]; from Artemisia capillaris): 6.13 µM
CCC(C)C(=O)O[C@@H]1c2c(ccc3ccc(=O)oc23)OC(C)(C)[C@@H]1OC(C)=O (stereo partly drawn) [hyuganin C] |  |  |  |  |  | IC50 ([1]; from Mutellina purpurea): 38.9 µM
C[C@@H]1O[C@@H](O[C@@H]2[C@@H](O)[C@H](OCCc3ccc(O)c(O)c3)O[C@H](COC(=O)/C=C/c3ccc(O)c(O)c3)[C@H]2O)[C@H](O)[C@H](O)[C@H]1O [isoacteoside] |  |  |  |  |  | IC50 ([1]; from H. procumbens): 29.7 µM
O=c1c(O)c(-c2ccc(O)cc2)oc2cc(O)cc(O)c12 [kaempferol] |  |  |  |  |  | IC50 ([1]; from Cleistocalyx operculatus): 62.5 µM
CC1=C2OCC(C)c3ccc(C)c(c32)C(=O)C1=O (stereo not drawn) [mansonone E] |  |  |  |  |  | IC50 ([2]; from Mansonia gagei): 23.5 µM
CCC(C)C(=O)c1c(O)c2c(c3c(-c4ccccc4)cc(=O)oc13)OC(C)(CCC=C(C)C)C=C2 (stereo not drawn) [mesuagenin B] |  |  |  |  |  | IC50 ([2]; from Mesua elegans): 0.7 µM
COc1cc2ccc(=O)oc2cc1O [scopoletin] |  |  |  |  |  | IC50 ([2]; from Vaccinium oldhami Miquel): 52 µM
COc1cc2oc(-c3ccc(O)cc3)cc(=O)c2c(O)c1[C@@H]1O[C@H](CO)[C@@H](O)[C@H](O)[C@H]1O [swertisin, isovitexin-7-O-methyl ether] |  |  |  |  |  | IC50 ([2]; converted from µg/mL, from Anthocleista vogelii): 71.9 µM; IC50 AChE ([2]; from Anthocleista vogelii): 32.09 µg/mL (≈ 71.9 µM)
O=C(/C=C/c1ccc(O)cc1)OC[C@H]1O[C@@H](Oc2c(-c3ccc(O)cc3)oc3cc(O)cc(O)c3c2=O)[C@H](O)[C@@H](O)[C@@H]1O [tiliroside] |  |  |  |  |  | IC50 [2, 9]: 23.5 µM
Pteryxin [PJ2] |  |  |  |  |  | IC50 ([1]; converted from μg/mL, from M. purpurea): 33.5 µM; IC50 BChE ([1]; from M. purpurea): 12.96 µg/mL; Residual activity at 10 µM (%) MAO-B ([3]; inhibitor 10 µM): 79.7 ± 3.47%; Residual activity at 10 µM (%) MAO-A ([4]; inhibitor 10 µM): 85.4 ± 3.80%; Residual activity at 10 µM (%) BChE ([5]; inhibitor 10 µM): 87.6 ± 7.14%; Residual activity at 10 µM (%) AChE ([6]; inhibitor 10 µM, 15 min preincubation): 73.4 ± 11.3%
corenone B |  |  |  |  |  | IC50 ([1]; converted from μg/mL, from Niphogeton dissecta): 49.5 µM; IC50 BChE ([1]; from Niphogeton dissecta): 10.9 µg/mL
